Measurements taken from patent US10414721B1, “Inhibitor of endocannabinoid cellular reuptake” (University of Bern, priority 2018, dated 2019).
Entries after “also recorded” stand apart in the source; their conditions may differ.

Key:
AEA uptake in U937 cells = assay: AEA uptake inhibition in U937 cells; format: cell-based
Description: Based on the natural product (2E,4E)-N-isobutylamidedodeca-2,4-dienamide from the medicinal plant E. purpurea as a starting point, a library of 634 of analogs and derivatives with varying alkyl chain length was synthesized, and structure of the head group moiety analyzed. All new derivatives were tested for AEA uptake inhibition in U937 cells using a high-content screening assay.
(§1) All radioactivity-based AEA and 2-AG uptake and release assays performed in U937, and HMC-1 cells were carried out using two different assay formats as previously reported. AEA and 2-AG uptake assay in Neuro2a and primary mouse cortical neurons were performed with a different method disclosed in Chicca 2017.

[1] = test system: AEA uptake in HMC-1 human mast cells; assay: AEA uptake inhibition in FAAH-deficient HMC-1 cells; format: cell-based
Description: as §1

FAAH = FAAH (Homo sapiens, UniProt O00519); assay: FAAH activity / AEA hydrolysis assay; format: biochemical; conditions: human recombinant enzyme, cell and brain homogenates; read-out: IC50 for AEA hydrolysis (FAAH) inhibition
Description: FAAH, ABHDs, MAGL and COX-2 activity assays were performed using cell homogenates, human recombinant enzymes and mouse, rat and pig brain homogenates as previously described.

major serine hydrolases = assay: Activity-based protein profiling (ABPP) in mouse brain membranes; format: biochemical; conditions: membranes from mouse brain
Description: ABPP experiments were performed using membrane preparations obtained from mouse brains as described earlier.

45 CNS-related receptors = assay: CNS adverse drug reaction screening panel (CEREP); format: binding; conditions: including cannabinoid receptors
Description: CB1 and CB2 receptor binding assays [^35S]GTPγS assays were performed as previously described. WOBE437 was profiled in more detail in an extended CNS adverse drug reaction screening panel (CEREP).

[2] = LC-MS/MS quantification of WOBE437 in tissues after i.p. injection; format: in vivo, mouse; design: highest concentration in brain: unit not given here
Description: (§2) In order to investigate whether there was a link between the in vivo pharmacological effects of WOBE437 and the inhibition of EC uptake in vitro, the levels of WOBE437, AEA, 2-AG and related lipids in different tissues were quantified by LC-MS/MS. […] The Cbrain/Cplasma ratio (Kp) of WOBE437 was 0.65 after 5 min, 1.64 after 15 min and reached 1.9 after 30 and 60 min (FIGS. 4A and 4E). The peak concentration of WOBE437 in the brain was 780±267 nM, thus being in line with the bioactive concentrations determined in cellular assays. […] Only at 15 min post-injection, WOBE437 prevented the moderate increase of 2-AG induced by DMSO (FIG. 4C). […] On the contrary, 2-AG levels increased 1.7-fold compared to vehicle at 1 h post-injection (FIG. 4G). […] Repeated administrations of WOBE437 led to a significant 3-fold increase of corticosterone in the brain, which mirrors the changes observed in plasma (FIG. 4H). In peripheral organs, WOBE437 reached peak concentrations of 5-20 nmol/g tissue, without any signs of accumulation over 7 days. […] However, EC concentrations were not affected by repeated administrations of WOBE437 in peripheral tissues. Again, corticosterone levels were increased in spleen, liver and kidney.
(§3) WOBE437, AEA, 2-AG, other lipids and hormones were quantified by LC-MS/MS in different biological matrices (cells, human whole blood, rodent tissues) as reported in Chicca 2017.

C57BL6/J mice = assay: LC-MS/MS quantification of endocannabinoids, lipids and corticosterone after i.p. injection; format: in vivo, mouse
Description: as §2, §3

[3] = Microsomal clearance, human liver microsomes; format: in vitro ADME
Description: Human or mice microsome clearance experiment were carried out as according to a previously describe protocol. Briefly, microsome preparation (0.5 mg/mL) plus cofactor NADPH solution was incubated with 1 μM of WOBE437 in 96-well plates at 37° C. After 1, 3, 6, 9, 15, 25, 35 and 45 min, 40 μL of the preparation was transferred and quenched with 3:1 (v/v) acetonitrile containing internal standards. Samples were then cooled and centrifuged before analysis by LC-MS/MS. Log peak area ratios (test compound peak area/internal standard peak area) are plotted against incubation time using a linear fit. The calculated slope is used to determine the intrinsic clearance. Data are obtained from single experiments measured with multiple time-points.

BALB/c male mice = assay: Tetrad test after oral administration; format: in vivo, mouse; conditions: 50 mg/kg p.o.
Description: The tetrad test was performed in the following order: rectal temperature, catalepsy, locomotion and analgesia. Rectal temperature was measured before (basal) and 1 h post gavage administration by using a thermocouple probe (Physitemp Instruments Inc., USA) and results were reported as the difference (Δ) between both temperatures. The bar test was used to evaluated catalepsy by placing the mouse in an imposed position with both forelimbs resting on a bar of 4 cm high; the end point of catalepsy was considered when both front limbs were removed or remained over 120 s. Locomotor activity was determined by placing the mouse on a rotarod (Erweka, Germany) at 4 rpm, the latency to fall was measured with a cut-off time of 120 s. Each mouse was previously trained to walk over the rotarod for at least 120 s. Catalepsy and locomotion were measured in three trials. Analgesia was evaluated with the hot plate test, each mouse was placed in a 54-56° C. hot plate (Thermo Scientific, USA) with a Plexiglas cylinder, the latency to first nociceptive response (paw lick or foot shake) was measured.

[4] = 7 days of daily treatment, 10 mg/kg i.p.

Sequence of FAAH (O00519 whole entry): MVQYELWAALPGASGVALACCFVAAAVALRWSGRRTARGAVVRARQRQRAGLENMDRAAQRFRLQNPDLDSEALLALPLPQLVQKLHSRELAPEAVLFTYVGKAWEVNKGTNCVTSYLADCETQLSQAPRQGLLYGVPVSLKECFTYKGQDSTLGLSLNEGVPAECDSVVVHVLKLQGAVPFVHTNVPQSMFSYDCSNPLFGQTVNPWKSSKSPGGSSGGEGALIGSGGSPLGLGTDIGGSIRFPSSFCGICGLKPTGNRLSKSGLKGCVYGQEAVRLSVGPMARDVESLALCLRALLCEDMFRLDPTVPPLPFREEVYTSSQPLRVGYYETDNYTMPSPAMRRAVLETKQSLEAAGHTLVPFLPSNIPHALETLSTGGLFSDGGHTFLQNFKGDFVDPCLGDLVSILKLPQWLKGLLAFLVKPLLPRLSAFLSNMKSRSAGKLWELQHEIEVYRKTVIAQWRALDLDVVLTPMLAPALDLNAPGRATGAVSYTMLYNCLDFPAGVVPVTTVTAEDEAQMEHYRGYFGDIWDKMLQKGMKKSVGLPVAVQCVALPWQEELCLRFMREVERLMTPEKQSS

## CCCCCCC/C=C/C=C/C(=O)NCCc1ccc(OC)c(OC)c1 [WOBE437, (2E,4E)-N-[2-(3,4-Dimethoxyphenyl)ethyl]dodeca-2,4-dienamide]
AEA uptake in U937 cells
  residual AEA and 2-AG reuptake upon treatment: 20-30%
  selectivity for AEA uptake over FAAH / AEA hydrolysis: 1000 fold
AEA uptake in U937 cells; Homo sapiens, U-937, U937 cells, 100 nM total AEA
  IC50: 10 ± 8 nM
AEA uptake in U937 cells; U937 cells, multiphase AEA uptake assay
  Hill slope, AEA uptake: −0.715
AEA uptake in U937 cells; intact U937 cells
  type of AEA uptake inhibition (Michaelis-Menten analysis): competitive
AEA uptake in U937 cells; rapid dilution assay
  reversibility of AEA uptake inhibition: reversible
[1]; HMC1, FAAH-deficient HMC-1 human mast cells, estimated
  IC50: ~137 nM
[1]; HMC-1 cells
  Hill slope, AEA uptake: −0.934
FAAH
  IC50: ≥ 10000 nM
Major serine hydrolases
  inhibition of major serine hydrolases (ABPP): does not inhibit any of the major serine hydrolases
45 CNS-related receptors
  interaction with 45 CNS-related receptors: did not exhibit any significant interaction
[2]; 10 mg/kg i.p.
  peak concentration in the brain: 780 ± 267 nM
  peak concentrations in peripheral organs: 5-20 nmol/g tissue
  peak plasma concentration: 492±103
  time of highest brain concentration: 30 min
  time of peak plasma concentration: 15 min
[2]; 10 mg/kg i.p., 1 h
  brain concentration: 652±165 pmol/g brain
[2]; 10 mg/kg i.p., after 15 min
  Cbrain/Cplasma ratio (Kp): > 1
[2]; 10 mg/kg i.p., after 30 min
  highest concentration in brain: 919±314
[2]; mouse, brain, ip, 1 h after a single injection, 10 mg/kg i.p., read-out: estimated brain concentration
  concentration at 1 h: 555 nM
[2]; mouse, brain, ip, after 7 days of treatment, 10 mg/kg i.p. daily, read-out: estimated brain concentration
  concentration at 7 days: 926 nM
[2]; mouse, brain/plasma, ip, 10 mg/kg, 10 mg/kg i.p., after 30 and 60 min, read-out: Cbrain/Cplasma ratio (Kp)
  Kp at 1 h: 1.9
[2]; mouse, brain/plasma, ip, 10 mg/kg, 10 mg/kg i.p., after 5 min, read-out: Cbrain/Cplasma ratio (Kp)
  Kp at 5 min: 0.65
[2]; mouse, brain/plasma, ip, 10 mg/kg, 10 mg/kg i.p., after 15 min, read-out: Cbrain/Cplasma ratio (Kp)
  Kp at 0.25 h: 1.64
[2]; mouse, plasma, ip, 10 mg/kg i.p.
  half-life: 3.38 h
C57BL6/J mice; [4]
  brain 2-AG level increase compared to vehicle (DMSO): 1.5 fold
  brain AEA level increase compared to vehicle (DMSO): 1.5 fold
C57BL6/J mice; after 7 days
  circulating concentration of corticosterone: doubled
C57BL6/J mice; brain, plasma and peripheral organs
  concentrations of other lipids (NAEs, AA, prostaglandins and progesterone): not significantly altered
C57BL6/J mice; repeated administration
  increase of corticosterone levels in brain, plasma and peripheral organs: 2-4 fold
C57BL6/J mice; repeated administrations
  increase of corticosterone in the brain: 3 fold
C57BL6/J mice; repeated administrations, 10 mg/kg
  EC concentrations in peripheral tissues: not affected; also recorded: did not significantly alter
C57BL6/J mice; single and repeated injection(s)
  AEA and 2-AG levels in plasma: not significantly affected
C57BL6/J mice; single injection
  2-AG levels in peripheral organs: not altered in the spleen, but dropped significantly after 60-360 min in liver and kidney
  AEA level in peripheral organs: did not change in liver, whereas in kidney and spleen it moderately diminished
  brain AEA levels compared to basal level: did not change
C57BL6/J mice; single injection 10 mg/kg i.p., 1 h post-injection
  brain 2-AG level increase compared to vehicle: 1.7 fold
[3]; 1 μM, preliminary
  clearance: 0.657 mL/min/kg
[3]; human, humans, from microsomal clearance, read-out: estimated maximal bioavailability
  bioavailability at 1 μM: 4%
BALB/c male mice
  antinociception in tetrad: significant antinociception
  body temperature, catalepsy or motor coordination vs vehicle: No statistical differences
BALB/c male mice; 1 h, control 5.9±5.4
  latency of catalepsy: 10.5 ± 10.6 s
BALB/c male mice; 1 h, control +0.1±0.8
  change in body temperature: −0.8±0.8 °C
